# Results reported in US11866431B2, “Bicyclic compounds” (Vivace Therapeutics, Inc., priority 2018, dated 2024).
# System: 8XTBD luciferase reporter (YAP reporter) in HEK293T cells
# Experiment: YAP Reporter Assay
# Format: cell-based
# Conditions: Homo sapiens, HEK-293T, 24 h, read-out: Firefly Luciferase IC50 (μM)
# Protocol: HEK293T cells stably transfected with 8XTBD luciferase reporter and pRLTK in 384-well plates were treated with the test compounds, starting from 3 μM (final concentration in assay plate), 1:3 dilution, and 10 points in quadruplicates. Post 24-hr incubation with compounds at 37° C. and 5% CO2, cells were lysed and 8XTBD-driven firefly luciferase and control TK-driven renilla luciferase activities were measured using Promega Dual-Luciferase Reporter Assay System.
# Reagents: The reagents used for this study are: DMEM: Invitrogen #11960077, Dual-Glo Luciferase Assay System: Promega-E2980, Puromycin Dihydrochloride: Invitrogen-A1113803, 384-well plate: PerkinElmer-6007480, L-GLUTAMINE: Invitrogen-25030164, Hygromycin B: Invitrogen-10687010, and Penicillin-Streptomycin: Merk-TMS-AB2-C
# Media: The media used for this assay were: Culture Medium: DMEM+1 ug/mL puromycin+200 ug/mL hygromycin (with 10% FBS+1 mM L-glutamine); and Assay Medium: DMEM (with 10% FBS+1 mM L-glutamine+1×P/S).
# Cell Plating: The appropriate media was warmed at 37° C. by water bath: Culture Medium, Assay Medium, 1*D-PBS, 0.05% trypsin-EDTA. The cells were trypsinized after removing all media, then washed with 1*sterile D-PBS and then with 2 ml 0.05% trypsin-EDTA. The cells were then incubated at RT for one minute. Then 10 ml/75 cm2 flask Assay Medium was added to each flask. Using a 10 ml pipette, the cells were then gently resuspended in the media, until the clumps completely disappeared. The cells were then transferred into 50 ml centrifuge tubes and were centrifuged at 800 rpm for 5 mins. The medium was removed and the cells were resuspended with Assay Medium. An aliquot of cells was used to count the cell density (cells/ml). The cell suspension was then diluted with Assay Medium to a concentration of 6×10^4 cells/ml. 50 ul cells suspension was then plated to 384-well plate (PerkinElmer-6007480), 3×10^3 cells/well and the cells were incubated in an incubator at 37° C. 5% CO2.
# Compound Treatment: In the afternoon (incubation of the plate with 3-4 hrs), the test compounds were added by Echo, starting from 3 uM (final concentration in the assay plate), 1:3 dilution, 10 points, quadruplicates. The plate was placed at 37° C. 5% CO2 incubator for 24 hrs.
# Detection: The Dual-Glo Luciferase Reagent was prepared by transferring the contents of one bottle of Dual-Glo Luciferase Buffer to one bottle of Dual-Glo Luciferase Substrate to create the Dual-Glo Luciferase Reagent. Mixing was performed by inversion until the substrate was thoroughly dissolved. After mixing, the reagent was aliquoted into 15 ml tubes. In the afternoon (24 hrs post compound treatment), the DMEM+ medium in the 384 well plates were aspirated by Microplate Washer.
# Measuring firefly luciferase activity: 20 ul Dual-Glo Luciferase Reagent was added to the 384-well plates. The plates were protected from light to prevent interference with the assay. The plates were shaken for 1 min followed centrifuging plates at 1000 rpm for 30 seconds. After waiting at least 10 minutes, the firefly luminescence was measured by Envision.
# Measuring renilla luciferase activity: 20 ul Stop-Glo Reagent was added to the 384-well plates. The plates were shaken for 1 min and then centrifuged at 1000 rpm for 30 seconds. After waiting at least 10 minutes, the renilla luminescence was measured by Envision.
# Compound IC50 and maximum inhibition on the firefly luciferase and renilla luciferase activities were reported separately.
row,SMILES,IC50
1,"CC(C)NC(=O)c1ccc2c(-c3ccc(C(F)(F)F)cc3)cc3scnc3c2c1 [Compound 68, N-isopropyl-5-(4-(trifluoromethyl)phenyl)naphtho[1,2-d]thiazole-8-carboxamide]",< 0.1 µM
2,"CC(C)NC(=O)c1cnc2c(-c3ccc(C(F)(F)F)cc3)cc(F)c(F)c2c1 [Compound 72, 5,6-Difluoro-N-isopropyl-8-(4-(trifluoromethyl)phenyl)quinoline-3-carboxamide]",< 0.1 µM
3,"CCOc1cc(-c2ccc(C(F)(F)F)cc2)c2ncc(C(=O)NC(C)C)cc2c1 [Compound 80, 6-ethoxy-N-isopropyl-8-(4-(trifluoromethyl)phenyl)quinoline-3-carboxamide]",< 0.1 µM

# Same assay, conditions: Homo sapiens, HEK-293T; HEK293T cells stably transfected with 8XTBD luciferase reporter and pRLTK; 24-hr incubation; top concentration 3 μM; read-out: Firefly Luciferase IC50
row,SMILES,IC50
1,"C[C@H](CN(C)C)NC(=O)c1ccc2c(-c3ccc(C(F)(F)F)cc3)cccc2c1 [Compound 65, (R)—N-(1-(dimethylamino)propan-2-yl)-5-(4-(trifluoromethyl)phenyl)-2-naphthamide]",1 to 3 µM
2,"C[C@@H](CN1CCCC1)NC(=O)c1ccc2c(-c3ccc(C(F)(F)F)cc3)cccc2c1 [Compound 66, (S)—N-(1-(pyrrolidin-1-yl)propan-2-yl)-5-(4-(trifluoromethyl)phenyl)-2-naphthamide]",0.1 to 1 µM
3,"C[C@H](CN1CCCC1)NC(=O)c1ccc2c(-c3ccc(C(F)(F)F)cc3)cccc2c1 [Compound 67, (R)—N-(1-(pyrrolidin-1-yl)propan-2-yl)-5-(4-(trifluoromethyl)phenyl)-2-naphthamide]",0.1 to 1 µM
4,"C[C@H](CN1CCOCC1)NC(=O)c1ccc2c(-c3ccc(C(F)(F)F)cc3)cccc2c1 [Compound 70, (R)—N-(1-morpholinopropan-2-yl)-5-(4-(trifluoromethyl)phenyl)-2-naphthamide]",1 to 3 µM
5,"CC(C)NC(=O)c1ccc2c(-c3ccc(C(F)(F)F)cc3)cc3ocnc3c2c1 [Compound 71, N-isopropyl-5-(4-(trifluoromethyl)phenyl)naphtho[1,2-d]oxazole-8-carboxamide]",< 0.1 µM
6,"CS(=O)(=O)NC(=O)c1cnc2c(-c3ccc(C(F)(F)F)cc3)cc(F)c(F)c2c1 [Compound 73, 5,6-Difluoro-N-(methylsulfonyl)-8-(4-(trifluoromethyl)phenyl)quinoline-3-carboxamide]",0.1 to 1 µM
7,"COCC(=O)NCCOCCOCCNC(=O)c1ccc2c(-c3ccc(C(F)(F)F)cc3)cccc2c1 [Compound 76, N-(4-oxo-2,8,11-trioxa-5-azatridecan-13-yl)-5-(4-(trifluoromethyl)phenyl)-2-naphthamide]",0.1 to 1 µM
8,"COCCC(=O)NCCOCCOCCNC(=O)c1ccc2c(-c3ccc(C(F)(F)F)cc3)cccc2c1 [Compound 77, N-(5-oxo-2,9,12-trioxa-6-azatetradecan-14-yl)-5-(4-(trifluoromethyl)phenyl)-2-naphthamide]",0.1 to 1 µM
9,"CCS(=O)(=O)NC(=O)c1ccc2c(-c3ccc(C(F)(F)F)cc3)cccc2c1 [Compound 78, N-(ethylsulfonyl)-5-(4-(trifluoromethyl)phenyl)-2-naphthamide]",0.1 to 1 µM
10,"CCOc1cc(-c2ccc(C(F)(F)F)cc2)c2ncc(C(=O)NS(C)(=O)=O)cc2c1 [Compound 81, 6-ethoxy-N-(methylsulfonyl)-8-(4-(trifluoromethyl)phenyl)quinoline-3-carboxamide]",0.1 to 1 µM
11,"C[C@@H](CO)NC(=O)c1ccc2c(-c3ccc(C(F)(F)F)cc3)cccc2c1 [Compound 84, (S)—N-(1-hydroxypropan-2-yl)-5-(4-(trifluoromethyl)phenyl)-2-naphthamide]",< 0.1 µM
12,"C[C@H](CO)NC(=O)c1ccc2c(-c3ccc(C(F)(F)F)cc3)cccc2c1 [Compound 85, (R)—N-(1-hydroxypropan-2-yl)-5-(4-(trifluoromethyl)phenyl)-2-naphthamide]",< 0.1 µM
13,"O=C(NCCO)c1ccc2c(-c3ccc(C(F)(F)F)cc3)cccc2c1 [Compound 86, N-(2-hydroxyethyl)-5-(4-(trifluoromethyl)phenyl)-2-naphthamide]",< 0.1 µM
14,"CC(C)NC(=O)c1ccc2c(-c3ccc(C(F)(F)F)cc3)ccc(C(F)(F)F)c2c1 [Compound 87, N-isopropyl-8-(trifluoromethyl)-5-(4-(trifluoromethyl)phenyl)-2-naphthamide]",0.1 to 1 µM
15,"CC(C)NC(=O)c1ccc2c(-c3ccc(C(F)(F)F)cc3)ccc(I)c2c1 [Compound 88, 8-iodo-N-isopropyl-5-(4-(trifluoromethyl)phenyl)-2-naphthamide]",0.1 to 1 µM
16,"COC[C@H](C)NC(=O)c1ccc2c(-c3ccc(C(F)(F)F)cc3)cccc2c1 [Compound 89, (S)—N-(1-methoxypropan-2-yl)-5-(4-(trifluoromethyl)phenyl)-2-naphthamide]",< 0.1 µM
17,"C[C@H](NC(=O)c1ccc2c(-c3ccc(C(F)(F)F)cc3)cccc2c1)c1ccccn1 [Compound 90, (S)—N-(1-(pyridin-2-yl)ethyl)-5-(4-(trifluoromethyl)phenyl)-2-naphthamide]",< 0.1 µM
18,"C[C@@H](NC(=O)c1ccc2c(-c3ccc(C(F)(F)F)cc3)cccc2c1)c1ccccn1 [Compound 91, (R)—N-(1-(pyridin-2-yl)ethyl)-5-(4-(trifluoromethyl)phenyl)-2-naphthamide]",0.1 to 1 µM
19,"CNCC(C)NC(=O)c1ccc2c(-c3ccc(C(F)(F)F)cc3)cccc2c1 (stereo not shown) [Compound 92, N-(1-(methylamino)propan-2-yl)-5-(4-(trifluoromethyl)phenyl)-2-naphthamide]",0.1 to 1 µM
20,"COC[C@@H](C)NC(=O)c1ccc2c(-c3ccc(C(F)(F)F)cc3)cccc2c1 [Compound 93, (R)—N-(1-methoxypropan-2-yl)-5-(4-(trifluoromethyl)phenyl)-2-naphthamide]",< 0.1 µM
21,"CC(C)NC(=O)c1cnc2c(-c3ccc(C(F)(F)F)cc3)cc(Cl)c(Cl)c2c1 [Compound 94, 5,6-Dichloro-N-isopropyl-8-(4-(trifluoromethyl)phenyl)quinoline-3-carboxamide]",< 0.1 µM
22,"CC(C)NC(=O)c1ccc2c(-c3ccc(C(F)(F)F)cc3)cc(N)c(O)c2c1 [Compound 95, 7-amino-8-hydroxy-N-isopropyl-5-(4-(trifluoromethyl)phenyl)-2-naphthamide]",0.1 to 1 µM
23,"CS(=O)(=O)NC(=O)c1cnc2c(-c3ccc(C(F)(F)F)cc3)cc(Cl)c(Cl)c2c1 [Compound 96, 5,6-dichloro-N-(methylsulfonyl)-8-(4-(trifluoromethyl)phenyl)quinoline-3-carboxamide]",0.1 to 1 µM
24,"COc1cc(-c2ccc(C(F)(F)F)cc2)c2ncc(C(=O)NC(C)C)cc2c1 [Compound 97, N-isopropyl-6-methoxy-8-[4-(trifluoromethyl)phenyl]quinoline-3-carboxamide]",< 0.1 µM
25,"COc1cc(-c2ccc(C(F)(F)F)cc2)c2ncc(C(=O)N[C@H](C)CO)cc2c1 [Compound 98, N-[(1R)-2-hydroxy-1-methyl-ethyl]-6-methoxy-8-[4-(trifluoromethyl)phenyl]quinoline-3-carboxamide]",< 0.1 µM
26,"C[C@H](CO)NC(=O)c1cnc2c(-c3ccc(C(F)(F)F)cc3)cccc2c1 [Compound 99, (R)—N-(1-hydroxypropan-2-yl)-8-(4-(trifluoromethyl)phenyl)quinoline-3-carboxamide]",< 0.1 µM
27,"COC[C@@H](C)NC(=O)c1cnc2c(-c3ccc(C(F)(F)F)cc3)cccc2c1 [Compound 100, (R)—N-(1-methoxypropan-2-yl)-8-(4-(trifluoromethyl)phenyl)quinoline-3-carboxamide]",0.1 to 1 µM
28,"C[C@@H](NC(=O)c1cnc2c(-c3ccc(C(F)(F)F)cc3)cccc2c1)c1ccccn1 [Compound 101, (R)—N-(1-(pyridin-2-yl)ethyl)-8-(4-(trifluoromethyl)phenyl)quinoline-3-carboxamide]",0.1 to 1 µM
